Experimental data taken from ChEMBL document CHEMBL1201862, “PubChem BioAssay data set” (2004).
Activity calls are given as the source filed them.

Experiments:
[1] = target: T1, Exodeoxyribonuclease V (Escherichia coli (strain K12), UniProt P04993+P07648+P08394); experiment: RecBCD inhibition via phage-restricted bacterial growth – absorbance, V66 E. coli, mutant T4 phage, counter-screen for AddAB inhibitor project, dose response (AID 492957); assay type: functional, cell-based, Escherichia coli str. K-12 substr. MG1655
T1 sequence (P04993 whole entry): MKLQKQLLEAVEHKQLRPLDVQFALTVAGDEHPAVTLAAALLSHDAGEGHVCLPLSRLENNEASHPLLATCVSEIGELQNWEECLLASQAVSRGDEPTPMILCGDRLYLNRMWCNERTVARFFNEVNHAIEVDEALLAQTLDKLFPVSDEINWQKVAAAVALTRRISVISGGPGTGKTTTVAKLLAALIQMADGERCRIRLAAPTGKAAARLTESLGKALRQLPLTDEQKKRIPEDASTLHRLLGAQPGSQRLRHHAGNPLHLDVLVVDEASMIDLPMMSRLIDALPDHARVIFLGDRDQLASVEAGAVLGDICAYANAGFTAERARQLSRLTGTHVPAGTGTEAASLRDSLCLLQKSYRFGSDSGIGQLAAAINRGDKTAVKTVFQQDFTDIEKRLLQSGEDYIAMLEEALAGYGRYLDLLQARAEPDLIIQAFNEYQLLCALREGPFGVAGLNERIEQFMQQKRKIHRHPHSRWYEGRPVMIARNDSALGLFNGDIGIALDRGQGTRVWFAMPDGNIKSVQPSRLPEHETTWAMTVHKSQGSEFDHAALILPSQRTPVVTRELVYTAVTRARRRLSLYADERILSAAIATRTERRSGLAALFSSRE
T1 sequence (P07648 whole entry): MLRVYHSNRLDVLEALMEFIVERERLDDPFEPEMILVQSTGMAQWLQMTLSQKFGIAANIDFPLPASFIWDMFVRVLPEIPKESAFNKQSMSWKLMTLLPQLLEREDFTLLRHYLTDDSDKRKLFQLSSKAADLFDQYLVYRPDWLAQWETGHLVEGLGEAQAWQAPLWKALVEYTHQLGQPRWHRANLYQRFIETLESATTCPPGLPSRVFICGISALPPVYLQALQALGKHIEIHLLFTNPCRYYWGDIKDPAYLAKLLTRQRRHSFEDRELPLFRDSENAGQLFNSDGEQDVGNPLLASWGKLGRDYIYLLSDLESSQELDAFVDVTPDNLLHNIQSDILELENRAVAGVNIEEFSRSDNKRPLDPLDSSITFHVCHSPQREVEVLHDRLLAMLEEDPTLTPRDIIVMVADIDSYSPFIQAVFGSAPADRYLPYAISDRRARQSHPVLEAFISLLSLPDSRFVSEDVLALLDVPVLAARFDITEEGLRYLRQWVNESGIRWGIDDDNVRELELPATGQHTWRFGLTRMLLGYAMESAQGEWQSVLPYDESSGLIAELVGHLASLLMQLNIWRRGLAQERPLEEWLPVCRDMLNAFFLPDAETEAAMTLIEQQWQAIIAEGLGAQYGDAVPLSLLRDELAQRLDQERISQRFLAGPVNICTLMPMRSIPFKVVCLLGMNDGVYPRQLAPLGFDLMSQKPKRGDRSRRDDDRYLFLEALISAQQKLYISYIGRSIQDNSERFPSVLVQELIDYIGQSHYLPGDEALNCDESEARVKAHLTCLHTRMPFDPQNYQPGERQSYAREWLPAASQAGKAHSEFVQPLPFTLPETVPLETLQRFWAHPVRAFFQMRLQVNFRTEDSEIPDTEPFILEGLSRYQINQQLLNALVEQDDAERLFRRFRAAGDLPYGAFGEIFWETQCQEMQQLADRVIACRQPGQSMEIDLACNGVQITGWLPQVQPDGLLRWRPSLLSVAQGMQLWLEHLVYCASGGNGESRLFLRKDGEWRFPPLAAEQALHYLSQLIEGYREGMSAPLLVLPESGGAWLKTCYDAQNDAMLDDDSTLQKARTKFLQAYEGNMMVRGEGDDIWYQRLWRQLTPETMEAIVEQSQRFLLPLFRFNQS
T1 sequence (P08394 whole entry): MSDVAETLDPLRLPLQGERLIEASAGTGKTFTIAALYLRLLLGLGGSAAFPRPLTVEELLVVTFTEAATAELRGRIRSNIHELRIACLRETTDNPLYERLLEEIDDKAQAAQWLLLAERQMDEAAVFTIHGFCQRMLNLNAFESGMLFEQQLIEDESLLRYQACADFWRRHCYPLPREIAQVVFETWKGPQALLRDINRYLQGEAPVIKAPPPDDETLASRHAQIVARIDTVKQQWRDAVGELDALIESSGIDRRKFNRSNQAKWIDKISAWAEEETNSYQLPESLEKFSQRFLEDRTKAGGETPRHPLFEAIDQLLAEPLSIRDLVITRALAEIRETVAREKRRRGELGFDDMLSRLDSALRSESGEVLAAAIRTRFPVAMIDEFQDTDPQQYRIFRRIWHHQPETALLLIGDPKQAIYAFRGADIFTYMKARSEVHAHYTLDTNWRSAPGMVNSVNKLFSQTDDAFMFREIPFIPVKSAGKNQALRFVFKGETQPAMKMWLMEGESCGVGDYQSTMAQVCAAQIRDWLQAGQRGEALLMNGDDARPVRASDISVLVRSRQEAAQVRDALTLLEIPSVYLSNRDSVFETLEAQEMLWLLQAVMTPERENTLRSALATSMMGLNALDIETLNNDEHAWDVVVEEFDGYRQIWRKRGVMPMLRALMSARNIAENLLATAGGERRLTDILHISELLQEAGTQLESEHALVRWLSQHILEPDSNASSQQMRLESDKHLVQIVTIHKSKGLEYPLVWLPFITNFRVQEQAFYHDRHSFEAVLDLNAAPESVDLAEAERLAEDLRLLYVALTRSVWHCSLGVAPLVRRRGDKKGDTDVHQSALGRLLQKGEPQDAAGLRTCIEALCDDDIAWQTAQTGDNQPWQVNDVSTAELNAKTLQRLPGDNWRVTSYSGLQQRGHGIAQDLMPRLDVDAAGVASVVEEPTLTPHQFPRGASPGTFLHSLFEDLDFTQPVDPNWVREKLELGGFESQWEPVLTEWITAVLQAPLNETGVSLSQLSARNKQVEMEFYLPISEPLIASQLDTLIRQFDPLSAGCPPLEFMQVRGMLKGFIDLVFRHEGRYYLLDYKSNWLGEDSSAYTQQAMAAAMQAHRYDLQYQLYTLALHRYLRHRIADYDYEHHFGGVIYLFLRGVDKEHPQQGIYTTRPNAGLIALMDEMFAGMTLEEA

[2] = Counterscreen for AddAB inhibitors: absorbance-based bacterial cell-based high throughput dose response assay for inhibitors of bacterial viability. [Related pubchem assays (depositor defined):AID435030, AID449728, AID449731, AID488942, AID488955, AID488956]; assay type: functional
[3] = test system: HEK293; experiment: HEK293T cell viability loss, resazurin readout – resazurin fluorescence, cytotoxicity control for NF-kB activator project, SAR follow-up (AID 493251); assay type: functional, cell-based; settings: Homo sapiens
[4] = test system: Jurkat; experiment: SAR Analysis of small molecule inhibitors of T-cell specific antigen receptor-induced NF-kB activation in a Jurkat cell line using a luminescence assay - Set 2. [Related pubchem assays (depositor defined):AID435003, AID435012, AID465]; assay type: functional, cell-based; settings: Homo sapiens
[5] = test system: HEK293; experiment: SAR Analysis of small molecule inhibitors of T-cell specific antigen receptor-induced NF-kB activation in a HEK-293T cell line using a luminescence assay - Set 2. [Related pubchem assays (depositor defined):AID435003, AID435012, AID489026]; assay type: functional, cell-based; settings: Homo sapiens
[6] = reduction of Shn3 3'UTR-driven luciferase in osteoblasts – cell-based, Clone20 osteoblasts, firefly luciferase, cherry-picked, dose response (AID 624132); assay type: functional;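 note: firefly luciferase luminescence from reporter carrying the Shn3 3'UTR in osteoblasts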
[7] = loss of viability in HepG2 cells – cell-based, CellTiter-Glo, cherry-picked, cytotoxicity control for Shn3 inhibitor project, dose response (AID 624134); assay type: functional
[8] = non-specific 3'UTR reporter inhibition in Clone20-Shn3RL – cell-based, Renilla luciferase, cherry-picked, counter-screen for Shn3 inhibitor project, dose response (AID 624133); assay type: functional
[9] = target: T2, Caspase-3 (Homo sapiens, UniProt P42574); assay type: functional;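 note: Dose-response selectivity test against caspase-3 for candidate inhibitors of sentrin-specific proteases (SENPs)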
T2 sequence (P42574 whole entry): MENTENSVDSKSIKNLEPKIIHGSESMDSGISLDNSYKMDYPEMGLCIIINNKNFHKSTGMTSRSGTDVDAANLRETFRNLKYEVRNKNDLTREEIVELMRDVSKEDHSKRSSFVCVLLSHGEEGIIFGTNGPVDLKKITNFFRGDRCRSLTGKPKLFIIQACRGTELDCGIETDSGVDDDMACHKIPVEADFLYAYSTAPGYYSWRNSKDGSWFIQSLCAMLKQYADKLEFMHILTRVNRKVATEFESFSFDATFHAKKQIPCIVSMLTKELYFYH

[10] = target: T3, Sentrin-specific protease 7 (Homo sapiens, UniProt Q9BQF6); assay type: functional;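 note: Luminescence-based dose-response confirmation of ultra-high-throughput screening hits, measuring inhibition of SENP7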
T3 sequence (Q9BQF6 whole entry): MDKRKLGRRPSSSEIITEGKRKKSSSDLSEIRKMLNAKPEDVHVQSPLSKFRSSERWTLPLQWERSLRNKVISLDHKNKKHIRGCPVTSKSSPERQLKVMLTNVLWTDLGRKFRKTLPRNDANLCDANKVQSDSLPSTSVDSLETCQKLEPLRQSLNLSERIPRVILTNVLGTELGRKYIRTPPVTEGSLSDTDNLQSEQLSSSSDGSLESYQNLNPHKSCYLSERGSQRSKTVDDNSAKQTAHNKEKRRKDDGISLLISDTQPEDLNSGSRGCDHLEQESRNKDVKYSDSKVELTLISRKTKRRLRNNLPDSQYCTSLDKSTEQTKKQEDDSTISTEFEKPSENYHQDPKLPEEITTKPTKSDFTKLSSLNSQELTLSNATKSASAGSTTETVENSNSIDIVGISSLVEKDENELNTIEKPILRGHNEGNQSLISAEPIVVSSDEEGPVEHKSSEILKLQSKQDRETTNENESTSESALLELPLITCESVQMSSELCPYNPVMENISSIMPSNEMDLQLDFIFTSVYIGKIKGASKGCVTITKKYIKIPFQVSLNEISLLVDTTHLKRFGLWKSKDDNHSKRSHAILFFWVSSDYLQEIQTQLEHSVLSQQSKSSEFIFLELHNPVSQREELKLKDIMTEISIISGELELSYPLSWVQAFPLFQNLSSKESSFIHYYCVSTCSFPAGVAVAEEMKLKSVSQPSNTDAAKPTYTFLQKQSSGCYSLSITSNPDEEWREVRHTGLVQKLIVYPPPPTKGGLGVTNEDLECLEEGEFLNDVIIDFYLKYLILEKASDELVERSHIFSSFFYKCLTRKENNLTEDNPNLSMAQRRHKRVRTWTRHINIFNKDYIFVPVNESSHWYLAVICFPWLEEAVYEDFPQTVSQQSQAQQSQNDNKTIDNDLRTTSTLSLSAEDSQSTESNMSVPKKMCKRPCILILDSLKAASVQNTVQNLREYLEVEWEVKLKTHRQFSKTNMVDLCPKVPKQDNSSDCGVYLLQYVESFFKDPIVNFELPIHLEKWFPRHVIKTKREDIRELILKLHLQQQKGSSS

[11] = target: T4, Sentrin-specific protease 6 (Homo sapiens, UniProt Q9GZR1); assay type: functional;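 note: Luminescence-based dose-response confirmatory assay of SENP6 inhibition, following up an ultra-high-throughput screen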
T4 sequence (Q9GZR1 whole entry): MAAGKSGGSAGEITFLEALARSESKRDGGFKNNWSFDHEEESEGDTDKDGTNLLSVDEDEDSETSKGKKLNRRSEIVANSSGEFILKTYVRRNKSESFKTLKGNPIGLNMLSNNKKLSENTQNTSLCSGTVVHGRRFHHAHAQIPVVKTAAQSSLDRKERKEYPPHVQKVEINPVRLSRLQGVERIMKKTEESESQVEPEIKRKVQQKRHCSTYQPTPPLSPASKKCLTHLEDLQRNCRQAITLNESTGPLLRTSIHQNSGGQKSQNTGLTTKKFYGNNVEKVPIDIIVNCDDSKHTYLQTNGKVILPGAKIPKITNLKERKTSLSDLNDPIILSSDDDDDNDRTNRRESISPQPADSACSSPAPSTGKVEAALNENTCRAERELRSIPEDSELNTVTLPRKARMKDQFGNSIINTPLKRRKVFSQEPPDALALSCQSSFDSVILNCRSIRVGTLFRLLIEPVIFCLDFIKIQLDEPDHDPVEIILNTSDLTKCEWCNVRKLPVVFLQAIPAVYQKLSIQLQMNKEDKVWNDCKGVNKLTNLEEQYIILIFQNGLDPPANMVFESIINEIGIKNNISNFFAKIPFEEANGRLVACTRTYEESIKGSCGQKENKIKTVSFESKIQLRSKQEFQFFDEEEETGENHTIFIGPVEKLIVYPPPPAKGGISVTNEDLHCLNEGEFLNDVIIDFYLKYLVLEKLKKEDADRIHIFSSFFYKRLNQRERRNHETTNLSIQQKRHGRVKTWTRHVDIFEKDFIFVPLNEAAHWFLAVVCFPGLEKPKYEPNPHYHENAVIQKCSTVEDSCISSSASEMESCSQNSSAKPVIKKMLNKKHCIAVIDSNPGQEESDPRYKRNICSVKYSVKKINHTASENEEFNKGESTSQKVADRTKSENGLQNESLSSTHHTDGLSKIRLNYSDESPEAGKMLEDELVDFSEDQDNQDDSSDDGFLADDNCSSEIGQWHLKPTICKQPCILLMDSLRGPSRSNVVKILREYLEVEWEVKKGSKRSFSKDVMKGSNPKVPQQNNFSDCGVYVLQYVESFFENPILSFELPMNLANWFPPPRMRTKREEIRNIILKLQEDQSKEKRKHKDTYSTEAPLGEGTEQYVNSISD

[12] = target: T5, Sentrin-specific protease 8 (Homo sapiens, UniProt Q96LD8); assay type: functional;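 note: luminescence read-out of SENP8 inhibition, dose-response confirmation following an ultra-high-throughput screen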
T5 sequence (Q96LD8 whole entry): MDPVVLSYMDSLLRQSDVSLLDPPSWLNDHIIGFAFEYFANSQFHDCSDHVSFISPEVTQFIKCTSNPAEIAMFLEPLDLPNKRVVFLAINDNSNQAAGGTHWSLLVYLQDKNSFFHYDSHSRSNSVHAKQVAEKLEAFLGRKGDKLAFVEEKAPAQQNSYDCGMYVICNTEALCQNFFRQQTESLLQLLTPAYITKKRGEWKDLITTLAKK

| Structure (SMILES) | IC50 [1] | IC50 [2] | IC50 [3] | IC50 [4] | IC50 [5] | AC50 [6] | AC50 [7] | AC50 [8] | IC50 [9] | IC50 [10] | IC50 [11] | IC50 [12] |
| --- | --- | --- | --- | --- | --- | --- | --- | --- | --- | --- | --- | --- |
| O=C(Nc1ccc2oc(-c3ccncc3)nc2c1)c1ccc([N+](=O)[O-])o1 | > 119 µM (inactive) | > 119 µM (inactive) | > 80 µM (inactive) | 55.5 µM (inactive) | 41.5 µM (inactive) | 18.6 µM (active) | > 70 µM (inactive) | 20.7 µM (active) |  |  |  |  |
| CCN(CC)S(=O)(=O)c1ccc2oc(Nc3ccccc3)nc2c1 |  |  |  |  |  |  |  |  | 29.7 µM (active) | 9.19 µM (active) | > 100 µM (inactive) | > 100 µM (inactive) |
